Laboratory results published in patent publication US7875614B2, “Phthalazinones” (Merck Patent GmbH, priority 2005, dated 2011).

Test system: cells
Test: cell cycle effect (G2/M)
Assay type: cell-based
Settings: cell line not stated; "Experiments show that"

## N=C(N)c1ccc(OCCCCCOc2ccc(C(=N)N)cc2)cc1 [pentamidine]
  effect on cell cycle: maintain cells in the G2/M cell cycle
